In ChEMBL document CHEMBL3045663, “Synthesis and Activity of Novel Acaricidal/Insecticidal 2, 4-Diphenyl-1, 3-oxazolines” (J Pestic Sci, 2002):
≈ marks a conversion by molar mass, not a printed value.

Columns and labels:
Plutella xylostella = experiment: Insecticidal activity against Plutella xylostella (diamondback moth) in compound treated radish leaf assessed as mortality at 500 ppm; format: functional
Tetranychus urticae [1] = experiment: Acaricidal activity against Tetranychus urticae (two-spotted spider mite) in compound treated kidney bean leaf assessed as larvicidal activity; format: functional
Myzus persicae = experiment: Insecticidal activity against Myzus persicae (green peach aphid) in compound treated radish leaf assessed as mortality at 500 ppm; format: functional
Nephotettix cincticeps = experiment: Insecticidal activity against Nephotettix cincticeps (green rice leafhopper) in compound treated rice seedlings assessed as mortality at 500 ppm; format: functional
Tetranychus urticae [2] = experiment: Acaricidal activity against Tetranychus urticae (two-spotted spider mite) in compound treated kidney bean leaf assessed as mortality of egg at 1000 ppm at 24 degC measured after 1 week; format: functional; details: 168 h
Chilo suppressalis = experiment: Insecticidal activity against Chilo suppressalis (rice stem borer) larvae assessed as inhibition of incorporation of N-acetyl-[1-14C]glucosamine; format: functional, organism-based

| SMILES | mortality at 500 ppm (Plutella xylostella) [%] | LC50 (Tetranychus urticae [1]) [µg/mL] | mortality at 500 ppm (Myzus persicae) [%] | mortality at 500 ppm (Nephotettix cincticeps) [%] | mortality at 1000 ppm (Tetranychus urticae [2]) [%] | EC50 (Chilo suppressalis) [nM] |
| --- | --- | --- | --- | --- | --- | --- |
| CCSc1ccccc1C1=NC(c2ccccc2)CO1 (stereo unspecified) | 10 | 100 (≈ 353 µM) | 0 | 10 | 10 | – |
| Fc1ccccc1C1=NC(c2ccccc2)CO1 (stereo unspecified) | 35 | 10 (≈ 41.4 µM) | 0 | 10 | 10 | – |
| COc1ccccc1C1=NC(c2ccccc2)CO1 (stereo unspecified) | 10 | 10 (≈ 39.5 µM) | 0 | 10 | 0 | – |
| Cc1ccccc1C1=NC(c2ccccc2)CO1 (stereo unspecified) | 60 | 100 (≈ 421 µM) | 60 | 0 | 60 | – |
| Brc1ccccc1C1=NC(c2ccccc2)CO1 (stereo unspecified) | 60 | 0.1 (≈ 0.331 µM) | 0 | 0 | 10 | – |
| Clc1ccccc1C1=NC(c2ccccc2)CO1 (stereo unspecified) | 35 | 1 (≈ 3.88 µM) | 0 | 10 | 10 | – |
| CCOc1ccccc1C1=NC(c2ccccc2)CO1 (stereo unspecified) | 0 | > 1000 | 0 | 0 | 0 | – |
| c1ccc(C2=NC(c3ccccc3)CO2)cc1 (stereo unspecified) | 60 | 10 (≈ 44.8 µM) | 0 | 0 | 0 | – |
| c1ccc(Oc2ccccc2C2=NC(c3ccccc3)CO2)cc1 (stereo unspecified) | 0 | 100 (≈ 317 µM) | 0 | 0 | 0 | – |
| CSc1ccccc1C1=NC(c2ccccc2)CO1 (stereo unspecified) | 35 | 100 (≈ 371 µM) | 0 | 0 | 0 | – |
| O=C(NC(=O)c1c(F)cccc1F)Nc1ccc(Cl)cc1 [DIFLUBENZURON] | – | – | – | – | – | 20 |
